Data set [1] has as its system CHO cell cultures. It counts as cell-based, Chinese hamster. Here is the method:
(§1) MATERIALS AND METHODS Cells.-Cultures of the established pseudo- diploid BHK21 Syrian hamster fibroblast line, and of the established pseudodiploid CHO Chinese hamster ovary fibroblast line were grown at 37?C as monolayers, in Eagle's minimal essential medium supplemented with 10% calf serum. Cultures in glass Petri dishes were maintained in a humidified 5% C02 atmosphere. […] Cell growth was estimated on the basis of the nucleic-acid content (RNA+ DNA) of each culture, deter- mined 5 days after seeding, when controls became confluent. To this purpose nucleotides and nucleic acids were sequentially extracted by differential hydrolyses with perchloric acid (PCA): soluble nucleotides of the intracellular pool were extracted with 5% PCA at 4?C for 30 min, RNA was hydrolysed with 10%/ PCA at 37?C for 1 h, and DNA was hydrolysed with 10% PCA at 70?C for 2 h. Soluble nucleotides and RNA were measured by UV absorption at 260 nm, DNA was measured at 268 nm, with a Hitachi 200-20 double-beam spectrophotometer. In order to label nucleic acids, the cultures were incu- bated with tritiated nucleosides (Radio- chemical Centre, Amersham, England): thy- midine-6-H3 ([3H]-TdR; 2 Ci/mM) and uridine-5-H3 ([3H]-UR; 2-5 Ci/mM) were used at the concentration of 2 µCi/ml. After labelling, nucleotides and nucleic acids were extracted and determined as above, and the radioactivity of liquid samples (0-5 ml) of the different fractions was counted in a Packard Tri-Carb 2425 scintillation counter, using 10 ml of Bray's solution. As stated else- where (Levis et al., 1978a, b) the extraction procedure with PCA allows both quantitative determinations and radioactivity counting of different fractions (soluble nucleotides, RNA and DNA) obtained from the same culture. […] The medium was not changed until the 8th day, when the plates were stained with acetic gentian violet, and scored for survivors. All colonies visible to the naked eye were counted as survivors. Chromosome preparations.-Suspensions of CHO cells were prepared by trypsinization of log-phase cultures and diluted with growth medium in 100mm Petri plates. Each plate received about 8 x 10^5 cells in 10 ml of medium, which was changed 24 h after seeding. At this time 3 x 10^-5 M bromodeoxyuridine (BUdR, Sigma, St Louis, Mo., U.S.A.) was added and the cells were allowed to incor- porate the analogue for two division cycles (30 h). […] The medium was not changed until the cells were collected 30 h later. During the last 4 h of treatment, 0 4 Hg/ml of colchicine (Merck, Darmstadt, Germany) were added. At the end of treatment, metaphase cells were dislodged by gently pipetting the overlaying medium and collected by centrifuging the suspension at 900 rev/min for 5 min. The cell pellet was suspended in 5 ml hypotonic buffer (10% sodium citrate) at 37?C for 10 min and fixed in ethanol/acetic acid (3/1). Fixed cells were heated at 89?C for 10 min in IM NaH2PO4 (pH 8) and stained with Giemsa (Korenberg & Freedlender, 1974). […] Chromium compounds and cell treatments.- Hexavalent chromium (Cr6+) was tested as K2Cr207 (potassium dichromate), K2CrO4 (potassium chromate) and Na2CrO4.4H20 (sodium chromate) (Mallinckrodt, St Louis, Mo., U.S.A.), as Na2Cr2O7.2H20 (sodium dichromate) (Riedel De Haen, Hannover, Germany), as CrO3 (chromic acid) (Merck, Darmstadt, Germany), and as CaCrO4 (cal- cium chromate) (BDH, Poole, England).

Data set [2] deals with CHO cells. Briefly: CHO cell survival (macroscopic colonies). The class given is cell-based, Chinese hamster. Particulars: seeded in presence of Cr, treated up to 8th day. How it is done: MATERIALS AND METHODS Cells.-Cultures of the established pseudo- diploid BHK21 Syrian hamster fibroblast line, and of the established pseudodiploid CHO Chinese hamster ovary fibroblast line were grown at 37?C as monolayers, in Eagle's minimal essential medium supplemented with 10% calf serum. Cultures in glass Petri dishes were maintained in a humidified 5% C02 atmosphere. […] Cell growth was estimated on the basis of the nucleic-acid content (RNA+ DNA) of each culture, deter- mined 5 days after seeding, when controls became confluent. […] Soluble nucleotides and RNA were measured by UV absorption at 260 nm, DNA was measured at 268 nm, with a Hitachi 200-20 double-beam spectrophotometer. […] After labelling, nucleotides and nucleic acids were extracted and determined as above, and the radioactivity of liquid samples (0-5 ml) of the different fractions was counted in a Packard Tri-Carb 2425 scintillation counter, using 10 ml of Bray's solution. As stated else- where (Levis et al., 1978a, b) the extraction procedure with PCA allows both quantitative determinations and radioactivity counting of different fractions (soluble nucleotides, RNA and DNA) obtained from the same culture. […] The medium was not changed until the 8th day, when the plates were stained with acetic gentian violet, and scored for survivors. All colonies visible to the naked eye were counted as survivors. […]

In the next data set the test system is BHK cells. The conditions noted are these: chronic exposure. How it is done: as §1
The test system of data set [3] is CHO cell cultures. Here is the method:
as §1

The test system of data set [4] is CHO cells. Particulars: 30 h, 1.0 ug/ml Cr6+. How it is done: as §1

The structures appear in SMILES notation. Where two headings read alike, the source gives them in different places.

For the molecule `[Ca+2].[O]=[Cr](=[O])([O-])[O-]` [CaCrO4, calcium chromate], in the data set with CHO cell cultures [1], the “Cell growth (%)” value came to 1% and the RNA/DNA was determined as 4.8.

For the molecule `CC(=O)[O-].CC(=O)[O-].CC(=O)[O-].[Cr+3]` [Cr(COOCH3)3, chromium acetate], the “50% lethal dose (LD50)” value in the data set with CHO cells [2] came out at 150 µg/mL. Moreover, the “Cell growth (%)” value with CHO cell cultures [1] (5 days in presence of compound, [Cr] 312.0 ug/ml) came to 1%. Besides, the “cytotoxic action on cell growth” value in the data set on BHK cells is listed as “weakly cytotoxic”.

Turning to `[Cl][Cr]([Cl])[Cl]` [CrCl3, chromium chloride], the “Cell growth (%)” value in the data set on CHO cell cultures [1] (5 days in presence of compound, [Cr] 262.0 ug/ml) was 61%. Further, the “cytotoxic action on cell growth” value in the data set on BHK cells (even at 300 tg/ml Cr3+ (maximum solubility in complete growth medium)) is reported as “little or no cytotoxic action”.

`O=S(=O)([O-])[O-].O=S(=O)([O-])[O-].[Cr+3].[K+]` [CrK(SO4)2, chromium potassium sulphate]: the “Cell growth (%)” value with CHO cell cultures [1] (5 days in presence of compound, [Cr] 209.0 ug/ml) is on record as 62%. The RNA/DNA with CHO cell cultures [1] (5 days, [Cr] 209.0 ug/ml) was 1-4. Further, in the data set with BHK cells, the “cytotoxic action on cell growth” value is listed as “weakly cytotoxic”.

`[O]=[Cr](=[O])=[O]` [CrO3, chromic acid]: the “Cell growth (%)” value in the data set with CHO cell cultures [1] came to 2%.

In the case of `[K+].[K+].[O]=[Cr](=[O])([O-])[O][Cr](=[O])(=[O])[O-]` [K2Cr2O7, potassium dichromate], the “Cell growth (%)” value in the data set on CHO cell cultures [1] is recorded as 4%.

`[K+].[K+].[O]=[Cr](=[O])([O-])[O-]` [K2CrO4, potassium chromate]: in the data set on CHO cell cultures [1], the “Cell growth (%)” value turned out to be 5%. Also, in the data set with CHO cell cultures [3], the “Sister chromatid exchanges per chromosome” value was 0.50 + 0-01 and the “Sister chromatid exchanges per metaphase” value was 9-80 + 0-31.

Regarding `[Na+].[Na+].[O]=[Cr](=[O])([O-])[O][Cr](=[O])(=[O])[O-]` [Na2Cr2O7, sodium dichromate], in the data set on CHO cell cultures [1], the “Cell growth (%)” value came out at 3% and the RNA/DNA is 6-9. For the same molecule, in the data set with CHO cells [4], the “increase of chromosome aberrations” value is on record as “about 10 fold”.

Consider `[Na+].[Na+].[O]=[Cr](=[O])([O-])[O-]` [Na2CrO4, sodium chromate], for which the “Cell growth (%)” value with CHO cell cultures [1] is on record as 6%. Besides, in the data set on CHO cell cultures [3], the “Sister chromatid exchanges per chromosome” value is 059 + 0-20 and the “Sister chromatid exchanges per metaphase” value is reported as 10-62 + 0-33.

(Values after article PMC2010087, “Cytotoxic and clastogenic effects of soluble chromium compounds on mammalian cell cultures” (British Journal of Cancer, 1979).)
